Experimental data published in article PMC6095626, “Screening of the Pathogen Box for inhibitors with dual efficacy against Giardia lamblia and Cryptosporidium parvum” (PLoS Neglected Tropical Diseases, 2018).
Entries after “also recorded” stand apart in the source; their conditions may differ.

Key:
[1] = test system: G. lamblia trophozoites (luciferase expressing, WBC6); assay: microbe, parasite or virus in culture; type: cell-based, Giardia lamblia; conditions: for Giardia (16 uM) Mean % inhibition: initial Pathogen Box screen, single concentration 16 µM, inhibition compared to DMSO wells
Method: Trophozoites were harvested by chilling cultures on ice for 30 minutes and plated by adding 150 μL per well at a concentration of 250,000 cells/mL. Metronidazole (Sigma, St. Louis, MO) was used as a control and was serially diluted 1:2 from 40 μM to 0.04 μM and 150 μL was added to the 150 μL of the G. lamblia trophozoites. Plates were covered in plastic low-evaporation lids, sealed in individual anaerobic BD GasPak Bio-Bags (Becton Dickinson, San Jose, CA) and incubated at 37 °C for 24 hours. […] A duplicate plate was concurrently set up and assayed using a MOXI Z Mini Automated Cell Counter Kit (Orflo, Ketchum, ID). Results obtained from the bioluminescence assay and the MOXI counter data were compared to evaluate their correlation to each another. Albendazole (Sigma, St. Louis, MO), an alternative giardiasis therapeutic, was assayed in concentrations from 4 μM to 0.004 μM with only the luciferase expressing G. lamblia cells. […]

[2] = test system: C. parvum (UGA1 Nluc expressing strain in HCT-8 cells); assay: microbe, parasite or virus in culture; type: cell-based, Cryptosporidium parvum; conditions: for Crypto (10 uM) Mean % inhibition: initial Pathogen Box screen, single concentration 10 µM, inhibition compared to DMSO wells
Method: Growth inhibition and EC50 determination assays were performed using UGA1 Nluc expressing C. parvum strain in HCT-8 cells (ATCC^©, Manassas, VA) as previously described. HCT-8 cells were inoculated onto 96-well plates and allowed to grow for 48 hours to 90–100% confluence and then treated with single concentration (10 μM) or serially diluted compounds prior to oocyst infection. C. parvum oocysts were incubated for 10 minutes in 10% bleach at room temperature and then washed with DPBS. […] The cell monolayers were lysed for 1 hour before adding Nano-Glo® luciferase reagent (Promega, Madison, WI), and measuring relative luminescence units (RLU) in an EnVision Plate Reader (Perkin Elmer, Waltham, MA). Several parameters, including reproducibility and reliability, were previously evaluated to optimize this assay for low and high-throughput (HTP) screening of small molecule compounds against C. parvum. EC50 values were calculated using Prism 7 software (GraphPad Software, San Diego, CA).
C. parvum screening against the Pathogen Box compounds was performed as previously described starting at a concentration of 10 μM [23].

Row | Compound | Giardia (16 uM) Mean % inhibition [1] | Crypto (10 uM) Mean % inhibition [2] | G. lamblia EC50 ([1]; luciferase expressing G. lamblia trophozoites, 24 hours, D-luciferin bioluminescence read-out) | EC50 ([2]; Nluc C. parvum in HCT-8 cells, 48 hours, read-out: C. parvum EC50)
1 | NCCC(O)C(=O)N[C@@H]1C[C@H](N)[C@@H](OC2O[C@H](CN)[C@@H](O)[C@H](O)[C@H]2O)[C@H](O)C1OC1O[C@H](CO)[C@@H](O)[C@H](N)[C@H]1O (some centres unmarked) [MMV687796] | X* (Mean or standard deviation are negative but not significantly different from the control to be a growth promoter) | 82% | – | –
2 | O=C(NC1CC1)c1ccc(N2CCC(Cc3ccccc3)CC2)nc1 [MMV024397] | X* (Mean or standard deviation are negative but not significantly different from the control to be a growth promoter) | X* (Mean or standard deviation are negative but not significantly different from the control to be a growth promoter) | – | –
3 | CN1CCC(NCc2cccc(-c3ccc(S(=O)(=O)NCc4ccccc4)cc3)c2)CC1 [MMV022029] | 89% | X* (Mean or standard deviation are negative but not significantly different from the control to be a growth promoter) | – | –
4 | O=C(CCC1CCCCC1)Nc1cccc(-c2nnc(-c3ccco3)o2)c1 [MMV676589] | 40% | 42% | – | –
5 | CC(=O)Nc1ccc(-c2noc(CC3CCCN(Cc4cccc(F)c4C)C3)n2)cc1 (centres unmarked) [MMV689061] | 17% | 59% | – | –
6 | O=C(NCc1ccoc1)N1CCN(Cc2ccc3c(c2)OCO3)CC1 [MMV688553] | 50% | 56% | – | –
7 | Cc1ncc(-c2ccnc(Nc3ccc(S(C)(=O)=O)cc3)n2)n1C(C)C [MMV676604] | 92% | 92% | not effective; also recorded: not potent | 2900 nM
8 | O=C(NCc1ccco1)N1CCN(Cc2ccc(Cl)s2)CC1 [MMV688555] | 34% | X* (Mean or standard deviation are negative but not significantly different from the control to be a growth promoter) | – | –
9 | C[C@H]1COc2c(N3CCN(C)CC3)c(F)cc3c(=O)c(C(=O)O)cn1c23 [MMV687798] | 61% | 50% | – | –
10 | Brc1cncc(-c2cc(NCCCn3ccnc3)nc(-c3ccccc3)n2)c1 [MMV661713] | X* (Mean or standard deviation are negative but not significantly different from the control to be a growth promoter) | X* (Mean or standard deviation are negative but not significantly different from the control to be a growth promoter) | – | –
11 | CC1=NN(c2nc3ccccc3s2)C(=O)C1Cc1cccc2ccccc12 (centres unmarked) [MMV676558] | 42% | 89% | – | –
12 | COc1ccc(-c2onc(C(F)(F)F)c2-c2ccc(Cl)cc2)c(O)c1 [MMV688766] | 29% | X* (Mean or standard deviation are negative but not significantly different from the control to be a growth promoter) | – | –
13 | N=C(N)Nc1ccc(-c2ccc(-c3ccc(N=C(N)N)c(Cl)c3)o2)cc1Cl [MMV688271] | 53% | 86% | – | –
14 | CCc1ccc(S(=O)(=O)Nc2cc(CN3CCN(CCC(C)C)CC3)ccc2C)cc1 [MMV688124] | 72% | X* (Mean or standard deviation are negative but not significantly different from the control to be a growth promoter) | – | –
15 | FC(F)(F)c1cnc(Sc2nnc(-c3ccncc3)o2)c(Cl)c1 [MMV011765] | 53% | 89% | – | –
16 | c1cc(C2=NCCN2)cc(-c2cc(-c3ccc(C4=NCCN4)cc3)no2)c1 [MMV688361] | 38% | 44% | – | –
17 | NCCC[C@@](N)(C(=O)O)C(F)F [MMV001625] | 16% | 36% | – | –
18 | CCC(C)NC(=O)c1ccc(NC(=O)C2(c3ccccc3)CCCC2)cc1 (centres unmarked) [MMV146306] | X* (Mean or standard deviation are negative but not significantly different from the control to be a growth promoter) | 37% | – | –
